Results taken from PubChem BioAssay AID743236 (The Scripps Research Institute Molecular Screening Center, 2013).
Active and inactive are the calls of the source. No rule for the calls is given here.

System: Ga16-expressing cells, calcium fluorescence, agonist counterscreen
Assay: Ga16 cell calcium activation, concentration series – fluorescence, dose response, counter-screen for TAAR1 antagonist project, late-stage follow-up (AID 743236)

| SMILES | EC50 |
| --- | --- |
| CC(=O)c1ccc(NC(=O)c2ccc(COc3ccccc3[N+](=O)[O-])o2)cc1 | > 29.9 µM (inactive) |
| CCCCC(=O)Nc1ccc(C(=O)Nc2ccc(S(=O)(=O)N3CCCC3)cc2)cc1 | > 29.9 µM (inactive) |
| COc1cccc(-c2nn(-c3ccccc3)cc2C(=O)Nc2nccs2)c1 | > 29.9 µM (inactive) |
| Cc1nn(Cc2c(F)c(F)c(F)c(F)c2F)c(C)c1NC(=O)c1ccc(COc2ccccc2Cl)cc1 | > 29.9 µM (inactive) |
| Cc1ccc(CSCC(=O)Nc2cc(S(=O)(=O)N3CCOCC3)ccc2OCC(F)(F)F)cc1 | > 29.9 µM (inactive) |
| COc1cc(NC(=O)c2cc3ccccc3o2)c(OC)cc1Cl | > 29.9 µM (inactive) |
| O=C(NCCn1cc(SCc2ccccc2F)c2ccccc21)c1c(F)cccc1F | > 29.9 µM (inactive) |
| Cc1cccc(C(C#N)c2nc3ccccc3nc2C(F)(F)F)c1 (centres undefined) | > 29.9 µM (inactive) |
| Cc1coc(NC(=O)CSc2nc(-c3ccc(Cl)cc3)cc(C(F)(F)F)c2C#N)n1 | > 29.9 µM (inactive) |
